# Key:
# [1] = biological target: P-gp (Homo sapiens, UniProt P08183); experiment: Efflux transporter identification in Caco-2 cell with P-gp specific inhibitors; conditions: efflux ratio reduced by PSC833 and verapamil, concentration-dependent
# [2] = Brain distribution by brain slices experiment; format: in vitro ADME, mouse; conditions: mouse
# Method: The unbound volume of distribution in the brain (V u, brain) was determined in fresh brain slices using the protocol published by Friden et al.[25].
# [3] = Plasma binding by RED device; format: in vitro ADME, mouse; conditions: for plasma binding: mice; for f u,plasma %: mouse plasma, RED device, 4 h, 37 °C; on all read-outs here: tested at 0.4 µM
# Method: (§1) Nonspecific binding in plasma (f u, plasma), microsomes (f u, mic) and hepatocyte (f u, hep) were determined using the method seen in supplemental information (Supplemental Methods). […]
# All validation compounds were incubated at 37 °C over 4 h, and in triplicate. For […]
# plasma stability, 10 mM DMSO solutions of SLM and SLOH were diluted to 40 µM (10% DMSO). Plasma […]
# shaking water bath (60 oscillations/min approx.). The assay was started by addition of 6 µL aliquots to […]
# the plasma (final DMSO incubation concentration 0.1%). […]
# (§2) MS/MS. Natural logarithm of peak area ratios (compound peak area normalized by IS peak area) were plotted against time and half-life calculated. […]
# (§3) placed into the sample chamber (indicated by the red ring) with 400 µL of PBS into the adjacent chamber.
# (§4) The plate was sealed with a self-adhesive lid and incubated at 37 °C on an orbital shaker (1.5 g approx.) for 4 h. Aliquots (100 µL) were removed from each side of the insert, and analyzed after protein precipitation using 4 folds acetonitrile (ACN) containing berberine chloride as internal standard (IS) by LC-MS/MS (Analytical me thod seen below). The experimental procedure outlined in the Thermo Scientific RED device systems brochure was adopted in the present study . […]
# [4] = Blood cell partitioning (blood to plasma ratio); format: in vitro ADME; conditions: fresh whole blood, 37 °C
# Method: The blood to plasma ratio was determined using the method shown in supplemental information (Supplemental Methods). […] The blood cell partitioning was calculated as follows. […] Plasma, liver microsomes and hepatocyte binding by RED device The stability of the compounds in plasma, liver microsomes and hepatocyte were studied to ensure the reliability of the binding data. Hepatocyte was deactivated by leaving them on a bench for 2 days and going through a freeze thaw cycle thereafter.
# [5] = tested on: human hepatocytes; experiment: Hepatocyte stability; format: in vitro ADME; conditions: well-stirred model
# Method: as §2, §3
# The plate was sealed with a self-adhesive lid and incubated at 37 °C on an orbital shaker (1.5 g approx.) for 4 h. Aliquots (100 µL) were removed from each side of the insert, and analyzed after protein precipitation using 4 folds acetonitrile (ACN) containing berberine chloride as internal standard (IS) by LC-MS/MS (Analytical me thod seen below). The experimental procedure outlined in the Thermo Scientific RED device systems brochure was adopted in the present study . The several positive controls […]
# In vitro stability in liver microsomes and hepatocytes
# Half-life (t1/2) of SLM or SLOH in liver microsomes was determined in duplicate. In phase I reaction, […]
# buffer (pH 7.4) including 81 mM Na2HPO4 and 19 mM NaH2PO4 ) at 37 °C, the reaction mixture was prewarmed at 37 °C for 2 minutes before adding NADPH (1.0 mM). In phase II reaction, the compound […]
# 5 mM MgCl2, 10 μg/mL alamethicin, and 2% (w/v) BSA. […]
# reactions were initiated with the addition of UDPGA (5.0 mM). […]
# [6] = Liver microsomes binding by RED device; format: in vitro ADME
# Method: as §1
# Plasma, liver microsomes and hepatocyte binding by RED device […]
# The stability of the compounds in plasma, liver microsomes and hepatocyte were studied to ensure […]
# the reliability of the binding data. Hepatocyte was deactivated by leaving them on a bench for 2 days […]
# and going through a freeze thaw cycle thereafter. […]
# denatured. Testosterone was used as a control for CYP3A to ensure no turnover, so that the enzymes […]
# were inactivated. All validation compounds were incubated at 37 °C over 4 h, and in triplicate. […]
# For liver mi crosomes without cofactors and […]
# mg/mL protein concentration, same as the assay condition) or deactivated hepatocytes (0.5 million […]
# cells/mL, same as the assay condition) were added to the donor wells. 10 mM DMSO solutions of SLM […]
# and SLOH were diluted to 50 µM (10% DMSO). 490 µL aliquots microsomes (0.51 mg/mL) and […]
# hepatocytes (0.51 million cells/mL) were dispensed into a 1.5 mL tube, and then pre-warmed at 37 °C […]
# in a shaking water bath. The assay was started by addition of 10 µL aliquots of compound solutions to […]
# the corresponding biologica l matrices (final DMSO incubation concentration 0.2%, microsomes […]
# concentration 0.50 mg/mL, hepatocytes concentration 0.5 million cells/mL). At 0, 15, 30, 60, 120, 180 […]
# as §2, §3, §4
# For control experiments, NADPH, UDPGA and/or liver microsomes were omitted from these incubations. For the purposes of metabolite identification studies, the concentration of SLOH and […]
# [7] = in vitro; conditions: human, Caco-2
# [8] = tested on: AD model mice; set-up: method as in PMID 28032988; conditions: cited from earlier work
# [9] = Liver microsomes stability with NADPH; format: in vitro ADME, mouse; conditions: for microsomal CLint at 1 μM: ICR/CD-1, liver microsomes, NADPH, read-out: Microsomes Cl int,app; for microsomal CLint at 1 μM / CLint scaled at 1 μM: pH 7.4; for CLint scaled at 1 μM: ICR/CD-1, mouse, liver microsomes, read-out: Microsomes Cl int,scaled; for Microsomes scaled Cl hep: well-stirred model; for Microsomes Cl u, int,app: Cl int,app / f u,mic
# [10] = human liver microsomes 0.5 mg/mL
# [11] = mouse liver microsomes 0.5 mg/mL
# Chain of P-gp (P08183 whole entry): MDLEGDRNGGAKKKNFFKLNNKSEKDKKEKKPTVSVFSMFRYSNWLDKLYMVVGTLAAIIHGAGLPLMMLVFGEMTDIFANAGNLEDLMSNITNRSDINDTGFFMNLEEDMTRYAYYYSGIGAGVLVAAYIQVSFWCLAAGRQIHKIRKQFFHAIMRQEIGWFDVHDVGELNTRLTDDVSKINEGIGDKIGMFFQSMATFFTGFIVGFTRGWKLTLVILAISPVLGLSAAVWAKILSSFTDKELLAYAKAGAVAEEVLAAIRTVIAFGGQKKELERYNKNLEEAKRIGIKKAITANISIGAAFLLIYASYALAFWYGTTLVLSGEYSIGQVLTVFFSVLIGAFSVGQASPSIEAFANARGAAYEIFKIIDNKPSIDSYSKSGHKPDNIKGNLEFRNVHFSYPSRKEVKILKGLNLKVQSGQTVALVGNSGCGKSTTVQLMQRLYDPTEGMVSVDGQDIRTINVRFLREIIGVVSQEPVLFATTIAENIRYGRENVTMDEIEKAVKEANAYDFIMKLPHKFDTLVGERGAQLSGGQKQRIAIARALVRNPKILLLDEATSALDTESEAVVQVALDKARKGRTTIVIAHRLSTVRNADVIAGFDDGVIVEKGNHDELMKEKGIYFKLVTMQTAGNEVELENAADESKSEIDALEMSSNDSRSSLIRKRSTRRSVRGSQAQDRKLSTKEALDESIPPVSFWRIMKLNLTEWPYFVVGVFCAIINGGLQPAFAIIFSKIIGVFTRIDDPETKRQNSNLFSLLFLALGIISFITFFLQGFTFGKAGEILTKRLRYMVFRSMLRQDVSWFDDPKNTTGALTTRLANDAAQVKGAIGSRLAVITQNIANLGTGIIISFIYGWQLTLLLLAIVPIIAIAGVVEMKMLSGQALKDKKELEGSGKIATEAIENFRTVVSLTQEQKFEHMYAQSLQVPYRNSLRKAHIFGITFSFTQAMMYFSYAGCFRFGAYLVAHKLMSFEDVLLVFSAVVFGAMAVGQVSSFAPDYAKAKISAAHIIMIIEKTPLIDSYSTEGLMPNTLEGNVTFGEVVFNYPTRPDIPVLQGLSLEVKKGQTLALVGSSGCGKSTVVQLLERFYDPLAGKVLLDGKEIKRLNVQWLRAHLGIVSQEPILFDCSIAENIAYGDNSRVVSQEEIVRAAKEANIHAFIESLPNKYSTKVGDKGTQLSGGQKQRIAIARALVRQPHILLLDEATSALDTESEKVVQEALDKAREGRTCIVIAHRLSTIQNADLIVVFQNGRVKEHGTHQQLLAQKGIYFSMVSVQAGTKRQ
Structure (SMILES),P-gp substrate identification [1],"V u,brain (AD) [2] [mL/g brain]","V u,brain (WT) [2] [mL/g brain]",plasma binding [3] [%],"f u,plasma % [3]","blood plasma ratio at 1 h, 1 μM ([4]; human)","blood plasma ratio at 1 h, 1 μM ([4]; mouse)",Hepatocyte scaled Cl hep [5] [mL/min/kg],"f u,mic % [6, 10] [%]","f u,mic % [6, 11]",Papp A→B at 1 μM [7] [×10⁻⁶ cm/s],efflux ratio at 1 μM [7],effect on pathological symptom and memory deterioration [8],microsomal CLint at 1 μM ([9]; mouse) [µL/min/mg],CLint scaled at 1 μM [9] [mL/min/kg],Microsomes scaled Cl hep ([9]; mouse) [mL/min/kg],"Microsomes Cl u, int,app ([9]; mouse)","Microsomes Cl u, int,scaled ([9]; mouse)"
"COCCOCCn1c2ccccc2c2cc(/C=C/c3cc[n+](C)c4ccccc34)ccc21.[I-] [SLM, (E)-4-(2-(9-(2-(2-methoxyethoxy)ethyl)-9H-carbazol-3-yl)-vinyl)-1-methyl-quinolin-1-iumiodide]",substrates,1.50 ± 0.580,2.10 ± 0.650,> 95,1.70 ± 0.380^$ %,~0.82,~1.4,0.833 ± 0.167,7.30 ± 0.150,11.0 ± 1.06^$ %,2.5,34,alleviate the pathological symptom and memory deterioration,30,130 ± 9,16 ± 0.833,0.300 ± 0.0200^$$ mL/min/mg,
"COCCOCCn1c2ccccc2c2cc(/C=C/c3cc[n+](CCO)c4ccccc34)ccc21 [SLOH, (E)-1-(2-hydroxyethyl)-4-(2-(9-(2-(2-metho-xyethoxy)-ethyl)-9H-carbazol-3-yl)vinyl) quinolin-1-ium chloride]",substrates,1.20 ± 0.240,1.40 ± 0.400,> 95,3.50 ± 0.700^$ %,~0.76,~1.3,1 ± 0.167,6.60 ± 1.60,17.0 ± 2.40^$ %,2.7,9,alleviate the pathological symptom and memory deterioration,30,110 ± 13,18.3 ± 1.67,0.170 ± 0.0200^$$ mL/min/mg,680 ± 75.0^$$ mL/min/Kg

# From PMC5703966, “Systemic clearance and brain distribution of carbazole-based cyanine compounds as Alzheimer’s disease drug candidates” (Scientific Reports, 2017)
